Measurements taken from patent US20240246960A1 (adMare Therapeutics Society, priority 2021, published 2024).
Read-outs that look alike come from different tables or passages of the source.

Experiments:
[1] = Microsomal stability assay, mouse liver microsomes; settings: for microsomal CLint at 0.1 uM: male, CD-1, mouse, liver microsomes, pH 7.4, Microsomal Stability Mouse Clint
DNA-PK = target: T1, DNA-PK (Homo sapiens, UniProt P78527); test: DNA-PK Assay for Biochemical Enzymatic Inhibition (ADP Glo Kinase assay)
T1 construct: purchased Invitrogen PR9107A
How it was run: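 Human DNA-PK (25 ng) preincubated 15 min with compounds (ten three-fold dilutions) in HEPES pH 7.5, MgCl2, KCl, calf thymus DNA buffer, then substrate 434.4 μM and ATP 64.4 μM (final) for 60 min at room temperature. ADP-Glo luminescence; percent inhibition fitted by four-parameter regression for IC50.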

[2] = target: T2, pDNA-PK ser2056 induction in HCT116 spheroids (Homo sapiens, UniProt P78527); test: Multicellular tumour spheroid + radiation, pDNA-PK inhibition, HCT116; type: cell-based; settings: 20 Gy, 20% O2
T2 construct: endogenous in cells; host or cells: HCT116 multicellular tumour spheroids
How it was run: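 HCT116 spheroids (~0.5 mm) in MEM/10% FBS/10 mM glucose, 20% O2, 37 °C, pre-incubated 1 h with compound (10 or 5 μM down to 3.5 nM), irradiated 20 Gy, incubated 2 h more. Cryosections immunostained for pDNA-PK ser2056; EC50 (μM) for 50% reduction of radiation-induced pDNA-PK.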

[3] = Microsomal stability assay, human liver microsomes; type: in vitro ADME; settings: for microsomal CLint at 0.1 uM: both sexes, human, liver microsomes
Protocol: Samples were then mixed and centrifuged. Supernatants were used for HPLC-MS/MS analysis. […] Peak areas corresponding to the test compound were recorded.

[4] = target: T3, DNA-PK phosphorylation at Serine 2056 (Homo sapiens, UniProt P78527); test: Cellular Assay for Inhibition of DNA-PK Phosphorylation at Serine 2056 (FaDu cells, neocarzinostatin, sandwich ELISA); type: cell-based
T3 construct: host or cells: FaDu
How it was run: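 FaDu cells were pretreated with compound (0.3% DMSO) for 1 h, then exposed to neocarzinostatin at 1 μg/mL final for 2 h to induce DSBs. Protein-normalized lysates were assayed by MSD sandwich ELISA for total and pSer2056 DNA-PK. IC50 came from variable-slope fits of % inhibition relative to DMSO and NCS controls.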

[5] = Hepatocyte stability assay, mouse hepatocytes; type: in vitro ADME; settings: for hepatocyte CLint at 1 uM: male, CD-1, mouse, cryopreserved hepatocytes
Protocol: (§1) Cryopreserved mouse hepatocytes were obtained from a pool of 10 or more male CD-1 mice. Cryopreserved human hepatocytes were obtained from a pool of 10 or more donors of mixed gender. Final hepatocyte density was 0.7 million viable cells per mL and test compound concentration was 1 uM with a maximum of 0.01% DMSO. Cryopreserved hepatocytes were thawed, washed, and resuspended in Krebs-Heinslet buffer (pH 7.3). The reaction was initiated by adding the test compound into cell suspension and incubated for 0, […], 1, 1.5, and 2 h, respectively, at 37° C./5% CO2. The reaction was stopped by adding acetonitrile into the incubation mixture. Samples were then mixed, transferred completely to another 96-well plate, and centrifuged. Supernatants were used for HPLC-MS/MS analysis. […] Peak areas corresponding to the test compound were recorded.

[6] = Hepatocyte stability assay, human hepatocytes; type: in vitro ADME; settings: both sexes, human, cryopreserved hepatocytes, pH 7.3; Example 11
Protocol: as §1

[7] = 0.1 mg/mL microsomes, 0.1 uM compound
[8] = Example 7, spheroid, cell line HCT115 [sic], read-out: EC50 (pDNA-PK inhibition, immunohistochemical endpoint)
[9] = Example 9 Study 2, read-out: Spheroid Cell line: HCT116 Immunohistochemical endpoint pDNA-PK inhibition EC50
[10] = pH 7.4, 0.1 mg/mL microsomes, 0.1 uM compound

| Microsomal Stability (mouse) % rem. 60 min [1] | microsomal CLint at 0.1 uM [1, 7] [µL/min/mg] | IC50 (DNA-PK; Table 1) [nM] | EC50 [2, 8] [nM] | EC50 [2, 9] [nM] | IC50 ([4]; Table 1) [nM] | also measured | Compound |
| --- | --- | --- | --- | --- | --- | --- | --- |
| H (% remaining = 75-100%) | < 116 | 0.5 to 1 | 1000 to 10000 | 1000 to 10000 | 100 to 1000 | Microsomal Stability (human) % rem. 60 min [3]: F (% remaining = 25-50%); microsomal CLint at 0.1 uM [3, 10]: > 116 µL/min/mg | O=C(N[C@H]1CC[C@@H](Oc2nc(N3CCOCC3)cc3ncccc23)CC1)c1cccnn1 [Compound 120, N-((1s,4s)-4-((7-morpholino-1,6-naphthyridin-5-yl)oxy)cyclohexyl)pyridazine-3-carboxamide] |
| F (% remaining = 25-50%) | > 116 | 0.5 to 1 | 1000 to 10000 | 1000 to 10000 | 100 to 1000 | – | Cc1cnc(C(=O)N[C@H]2CC[C@@H](Oc3nc(N4CCOCC4)cc4ncccc34)CC2)nc1 [Compound 128, 5-methyl-N-((1s,4s)-4-((7-morpholino-1,6-naphthyridin-5-yl)oxy)cyclohexyl)pyrimidine-2-carboxamide] |
| E (% remaining = 0-25%) | > 116 | 0.5 to 1 | 1000 to 10000 | 1000 to 10000 | < 100 | Microsomal Stability (human) % rem. 60 min [3]: E (% remaining = 0-25%); microsomal CLint at 0.1 uM [3, 10]: > 116 µL/min/mg | COc1ccnc(C(=O)N[C@H]2CC[C@@H](Oc3nc(N4CCOCC4)cc4ncccc34)CC2)n1 [Compound 131, 4-methoxy-N-((1s,4s)-4-((7-morpholino-1,6-naphthyridin-5-yl)oxy)cyclohexyl)pyrimidine-2-carboxamide] |
| E (% remaining = 0-25%) | > 116 | 0.5 to 1 | 1000 to 10000 | 1000 to 10000 | 100 to 1000 | – | O=C(N[C@H]1CC[C@@H](Oc2nc(N3CCOCC3)cc3ncccc23)CC1)n1cccn1 [Compound 136, N-((1s,4s)-4-((7-morpholino-1,6-naphthyridin-5-yl)oxy)cyclohexyl)-1H-pyrazole-1-carboxamide] |
| G (% remaining = 50-75%) | < 116 | < 0.5 | 500 to 1000 | 500 to 1000 | 100 to 1000 | Microsomal Stability (human) % rem. 60 min [3]: F (% remaining = 25-50%); microsomal CLint at 0.1 uM [3, 10]: > 116 µL/min/mg | O=C(N[C@H]1CC[C@@H](Oc2nc(N3CCOCC3)cc3ncccc23)CC1)c1cncs1 [Compound 137, N-((1s,4s)-4-((7-morpholino-1,6-naphthyridin-5-yl)oxy)cyclohexyl)thiazole-5-carboxamide] |
| E (% remaining = 0-25%) | > 116 | 0.5 to 1 | 500 to 1000 | 500 to 1000 | 100 to 1000 | – | O=C(N[C@H]1CC[C@@H](Oc2nc(N3CCOCC3)cc3ncccc23)CC1)c1cc[nH]n1 [Compound 138, N-((1s,4s)-4-((7-morpholino-1,6-naphthyridin-5-yl)oxy)cyclohexyl)-1H-pyrazole-3-carboxamide] |
| G (% remaining = 50-75%) | < 116 | 1 to 10 | 10000 to 100000 | 10000 to 100000 | 100 to 1000 | – | O=C(N[C@H]1CC[C@@H](Oc2nc(N3CCOCC3)cc3ncccc23)CC1)c1scnc1Cl [Compound 139, 4-chloro-N-((1s,4s)-4-((7-morpholino-1,6-naphthyridin-5-yl)oxy)cyclohexyl)thiazole-5-carboxamide] |
| E (% remaining = 0-25%) | > 116 | < 0.5 | 500 to 1000 | 500 to 1000 | < 100 | – | O=C(N[C@H]1CC[C@@H](Oc2nc(N3CCOCC3)cc3ncccc23)CC1)c1ncc[nH]1 [Compound 143, N-((1s,4s)-4-((7-morpholino-1,6-naphthyridin-5-yl)oxy)cyclohexyl)-1H-imidazole-2-carboxamide] |
| E (% remaining = 0-25%) | > 116 | 0.5 to 1 | 10 to 500 | 10 to 500 | < 100 | – | O=C(N[C@H]1CC[C@@H](Oc2nc(N3CCOCC3)cc3ncccc23)CC1)c1ccc[nH]1 [Compound 145] |
| E (% remaining = 0-25%) | > 116 | < 0.5 | 1000 to 10000 | 1000 to 10000 | < 100 | – | Nc1cnc2cc(N3CCOCC3)nc(O[C@H]3CC[C@@H](Nc4ncccn4)CC3)c2c1 [Compound 184, 7-morpholino-5-(((1s,4s)-4-(pyrimidin-2-ylamino)cyclohexyl)oxy)-1,6-naphthyridin-3-amine] |
| – | – | 1 to 10 | – | – | 100 to 1000 | Hepatocyte Stability (mouse) % rem. 120 min ([5]; 120 min): G (% remaining = 50-75%); hepatocyte CLint at 1 uM ([5]; pH 7.3, 0.7 million cells per mL, 1 uM compound): > 8.2 µL/min/1e6 cells | CN(c1cnc2cc(N3CCOCC3)nc(O[C@H]3CC[C@@H](Nc4ncccn4)CC3)c2c1)S(C)(=O)=O [Compound 197, N-methyl-N-(7-morpholino-5-(((1s,4s)-4-(pyrimidin-2-ylamino)cyclohexyl)oxy)-1,6-naphthyridin-3-yl)methanesulfonamide] |
| E (% remaining = 0-25%) | > 116 | < 0.5 | 1000 to 10000 | 1000 to 10000 | < 100 | – | COc1cnc(N[C@H]2CC[C@@H](Oc3nc(N4CCOCC4)cc4ncc(N)cc34)CC2)nc1 [Compound 202, 5-(((1s,4s)-4-((5-methoxypyrimidin-2-yl)amino)cyclohexyl)oxy)-7-morpholino-1,6-naphthyridin-3-amine] |
| – | – | – | – | – | – | Microsomal Stability (mouse) % rem. 60 min ([1]; Example 11): H (% remaining = 75-100%); microsomal CLint at 0.1 uM ([1]; Example 11): < 116 µL/min/mg; IC50 (DNA-PK; Table 2): < 0.5 nM; Microsomal Stability (human) % rem. 60 min ([3]; Example 11): H (% remaining = 75-100%); microsomal CLint at 0.1 uM ([3]; pH 7.4, Example 11): < 116 µL/min/mg; IC50 ([4]; Table 2): 1000 to 10000 nM | CS(=O)(=O)Nc1cnc2cc(N3CCOCC3)nc(O[C@H]3CC[C@@H](NC(=O)c4ncccn4)CC3)c2c1 [LFA015, N-[4-[[3-(Methanesulfonamido)-7-morpholino-1,6-naphthyridin-5-yl]oxy]cyclohexyl]pyrimidine-2-carboxamide] |
| – | – | – | – | – | – | hepatocyte CLint at 1 uM ([5]; pH 7.3, Example 11): > 8.2 µL/min/1e6 cells; IC50 (DNA-PK; Table 2): < 0.5 nM; hepatocyte CLint at 1 uM [6]: < 8.2 µL/min/1e6 cells | CS(=O)(=O)Nc1cnc2cc(N3CCOCC3)nc(O[C@H]3CC[C@@H](n4ccnc4)CC3)c2c1 [LFA017, N-[5-(4-Imidazol-1-ylcyclohexoxy)-7-morpholino-1,6-naphthyridin-3-yl]methanesulfonamide] |
| – | – | – | – | – | – | Microsomal Stability (mouse) % rem. 60 min ([1]; Example 11): G (% remaining = 50-75%); microsomal CLint at 0.1 uM ([1]; Example 11): < 116 µL/min/mg; IC50 (DNA-PK; Table 2): 0.5 to 1 nM; Microsomal Stability (human) % rem. 60 min ([3]; Example 11): G (% remaining = 50-75%); microsomal CLint at 0.1 uM ([3]; pH 7.4, Example 11): < 116 µL/min/mg; IC50 ([4]; Table 2): 100 to 1000 nM | O=C(N[C@H]1CC[C@@H](Oc2nc(N3CCOCC3)cc3ncc(O)cc23)CC1)c1ncccn1 [LFA115, N-[4-[(3-Hydroxy-7-morpholino-1,6-naphthyridin-5-yl)oxy]cyclohexyl]pyrimidine-2-carboxamide] |
| – | – | – | – | – | – | Microsomal Stability (mouse) % rem. 60 min ([1]; Example 11): F (% remaining = 25-50%); microsomal CLint at 0.1 uM ([1]; Example 11): < 116 µL/min/mg; IC50 (DNA-PK; Table 2): < 0.5 nM; Microsomal Stability (human) % rem. 60 min ([3]; Example 11): H (% remaining = 75-100%); microsomal CLint at 0.1 uM ([3]; pH 7.4, Example 11): < 116 µL/min/mg; IC50 ([4]; Table 2): < 100 nM | Oc1cnc2cc(N3CCOCC3)nc(O[C@H]3CC[C@@H](Nc4ncccn4)CC3)c2c1 [LFA117, 7-Morpholino-5-[4-(pyrimidin-2-ylamino)cyclohexoxy]-1,6-naphthyridin-3-ol] |
